# Where a name gives a salt, the structure may show the parent alone. Read-outs that look alike come from different tables or passages of the source.
# Experiments:
# [1] = tested on: NSCLC resistant to gefitinib or erlotinib; conditions: patients with NSCLC that have developed resistance to gefitinib or erlotinib; cited from earlier work
# EGFR L858R/T790M = EGFR L858R/T790M (Homo sapiens (Human), UniProt P00533, L858R/T790M); assay: HTRF-based EGFR biochemical assay (L858R/T790M); conditions: 100 μM ATP, enzyme 0.02 nM
# How it was run: (§1)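 Mutant EGFR (L858R 0.1 nM, L858R/T790M 0.02 nM) preincubated 30 min with compounds at room temperature in HEPES pH 7.0 buffer with Mg2+/Mn2+, then reacted 20 min with 1 μM biotinylated tyrosine kinase peptide and 100 μM ATP. Phosphorylation read by HTRF (Eu-cryptate anti-phosphotyrosine/streptavidin-XL665, 665/620 nm) after EDTA quench.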
# EGFR L858R = EGFR L858R (Homo sapiens (Human), UniProt P00533, L858R); assay: HTRF-based EGFR biochemical assay (L858R); conditions: 100 μM ATP, enzyme 0.1 nM
# How it was run: as §1
# [2] = tested on: EGFR mutant L858R/T790M Ba/F3 cells; assay: Ba/F3 cell proliferation model (Cell Titer Glo), EGFR L858R/T790M; type: cell-based, murine; conditions: 72 hours
# How it was run: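 Retrovirally transduced Ba/F3 cells exposed 72 h to compound alone or with 1 μg/mL cetuximab, triplicate points, repeated at least three times. Viability by Cell Titer Glo luminescence (ATP); curves fitted by non-linear sigmoidal dose-response regression.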
# [3] = tested on: EGFR mutant L858R Ba/F3 cells; assay: Ba/F3 cell proliferation model (Cell Titer Glo), EGFR L858R; type: cell-based, murine; conditions: 72 hours
# Excerpt: Example 26: Ba/F3 Cell Proliferation Models
# The EGFR mutant L858R and L858R/T790M Ba/F3 cells have been previously described (Zhou, W., et al. Nature 462, 2009, 1070-1074). All cell lines were maintained in RPM 1640 (Cellgro; Mediatech Inc., Herndon. CA) supplemented with 10% FBS, 100 units/mL penicillin, 100 units/mL streptomycin. The EGFR I941R mutation was introduced via site directed mutagenesis using the Quick Change Site-Directed Mutagenesis kit (Stratagene; La Jolla, CA) according to the manufacturer's instructions. All constructs were confirmed by DNA sequencing. The constructs were shuttled into the retroviral vector JP1540 using the Cre-recombination system (Agilent Technologies, Santa Clara, CA). Ba/F3 cells were then infected with retrovirus per standard protocols, as described previously (Zhou, et al, Nature 2009). Stable clones were obtained by selection in puromycin (2 μg/ml).
# Growth and inhibition of growth was assessed by the Cell Titer Glo® assay (Promega, Madison, WI) and was performed according to the manufacturer's instructions. The Cell Titer Glo® assay is a luminescence-based method used to determine the number of viable cells based on quantitation of the ATP present, which is directly proportional to the amount of metabolically active cells present. Ba/F3 cells of different EGFR genotypes were exposed to compounds as a single agent or in combination with 1 μg/mL cetuximab for 72 hours and the number of cells used per experiment was determined empirically as has been previously established (Zhou, et al., Nature 2009). All experimental points were set up in triplicates in 384-well plates and all experiments were repeated at least three times. […] The curves were fitted using a non-linear regression model with a sigmoidal dose response.
# [4] = Mus musculus, BaF3, single agent, read-out: Cell IC50 BaF3 EGFR L858R/T790M
# [5] = Mus musculus, BaF3, single agent, read-out: Cell IC50 BaF3 EGFR L858R
# [6] = in combination with 1 μg/mL cetuximab, read-out: Cell IC50 BaF3 EGFR L858R/T790M (+cetux.)
# [7] = in combination with 1 μg/mL cetuximab, read-out: Cell IC50 BaF3 EGFR L858R (+cetux.)
# Sequence of EGFR L858R (P00533 25-1210 L858R): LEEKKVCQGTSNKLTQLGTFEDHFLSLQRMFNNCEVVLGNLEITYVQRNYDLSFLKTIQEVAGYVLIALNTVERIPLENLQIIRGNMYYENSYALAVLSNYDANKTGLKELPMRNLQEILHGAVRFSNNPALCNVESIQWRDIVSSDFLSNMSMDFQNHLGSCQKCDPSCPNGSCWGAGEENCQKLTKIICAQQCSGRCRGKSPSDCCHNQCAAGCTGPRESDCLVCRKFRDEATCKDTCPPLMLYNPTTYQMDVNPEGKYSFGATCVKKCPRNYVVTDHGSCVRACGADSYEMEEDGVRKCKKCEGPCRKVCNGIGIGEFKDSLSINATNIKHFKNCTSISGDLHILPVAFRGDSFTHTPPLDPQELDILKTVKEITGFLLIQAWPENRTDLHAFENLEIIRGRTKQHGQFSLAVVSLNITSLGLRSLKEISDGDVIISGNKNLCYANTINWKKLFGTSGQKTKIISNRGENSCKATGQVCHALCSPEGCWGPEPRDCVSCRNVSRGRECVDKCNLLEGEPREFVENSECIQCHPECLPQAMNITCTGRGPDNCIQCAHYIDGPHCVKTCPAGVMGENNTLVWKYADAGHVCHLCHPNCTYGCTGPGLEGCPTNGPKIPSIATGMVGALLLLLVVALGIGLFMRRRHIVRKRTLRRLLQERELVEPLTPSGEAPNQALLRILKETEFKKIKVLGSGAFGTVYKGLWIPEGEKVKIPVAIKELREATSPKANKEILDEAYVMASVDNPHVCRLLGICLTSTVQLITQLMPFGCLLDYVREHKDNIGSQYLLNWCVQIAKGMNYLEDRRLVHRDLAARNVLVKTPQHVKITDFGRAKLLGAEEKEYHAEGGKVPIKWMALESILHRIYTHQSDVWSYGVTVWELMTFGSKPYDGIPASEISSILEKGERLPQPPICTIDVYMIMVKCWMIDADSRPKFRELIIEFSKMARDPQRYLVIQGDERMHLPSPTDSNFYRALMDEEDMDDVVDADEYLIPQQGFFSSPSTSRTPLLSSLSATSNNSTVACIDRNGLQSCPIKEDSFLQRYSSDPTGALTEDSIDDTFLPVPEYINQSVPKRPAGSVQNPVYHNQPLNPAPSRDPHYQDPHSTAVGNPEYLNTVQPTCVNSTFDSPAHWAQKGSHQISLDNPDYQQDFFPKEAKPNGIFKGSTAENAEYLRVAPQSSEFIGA
# Sequence of EGFR L858R/T790M (P00533 25-1210 T790M/L858R): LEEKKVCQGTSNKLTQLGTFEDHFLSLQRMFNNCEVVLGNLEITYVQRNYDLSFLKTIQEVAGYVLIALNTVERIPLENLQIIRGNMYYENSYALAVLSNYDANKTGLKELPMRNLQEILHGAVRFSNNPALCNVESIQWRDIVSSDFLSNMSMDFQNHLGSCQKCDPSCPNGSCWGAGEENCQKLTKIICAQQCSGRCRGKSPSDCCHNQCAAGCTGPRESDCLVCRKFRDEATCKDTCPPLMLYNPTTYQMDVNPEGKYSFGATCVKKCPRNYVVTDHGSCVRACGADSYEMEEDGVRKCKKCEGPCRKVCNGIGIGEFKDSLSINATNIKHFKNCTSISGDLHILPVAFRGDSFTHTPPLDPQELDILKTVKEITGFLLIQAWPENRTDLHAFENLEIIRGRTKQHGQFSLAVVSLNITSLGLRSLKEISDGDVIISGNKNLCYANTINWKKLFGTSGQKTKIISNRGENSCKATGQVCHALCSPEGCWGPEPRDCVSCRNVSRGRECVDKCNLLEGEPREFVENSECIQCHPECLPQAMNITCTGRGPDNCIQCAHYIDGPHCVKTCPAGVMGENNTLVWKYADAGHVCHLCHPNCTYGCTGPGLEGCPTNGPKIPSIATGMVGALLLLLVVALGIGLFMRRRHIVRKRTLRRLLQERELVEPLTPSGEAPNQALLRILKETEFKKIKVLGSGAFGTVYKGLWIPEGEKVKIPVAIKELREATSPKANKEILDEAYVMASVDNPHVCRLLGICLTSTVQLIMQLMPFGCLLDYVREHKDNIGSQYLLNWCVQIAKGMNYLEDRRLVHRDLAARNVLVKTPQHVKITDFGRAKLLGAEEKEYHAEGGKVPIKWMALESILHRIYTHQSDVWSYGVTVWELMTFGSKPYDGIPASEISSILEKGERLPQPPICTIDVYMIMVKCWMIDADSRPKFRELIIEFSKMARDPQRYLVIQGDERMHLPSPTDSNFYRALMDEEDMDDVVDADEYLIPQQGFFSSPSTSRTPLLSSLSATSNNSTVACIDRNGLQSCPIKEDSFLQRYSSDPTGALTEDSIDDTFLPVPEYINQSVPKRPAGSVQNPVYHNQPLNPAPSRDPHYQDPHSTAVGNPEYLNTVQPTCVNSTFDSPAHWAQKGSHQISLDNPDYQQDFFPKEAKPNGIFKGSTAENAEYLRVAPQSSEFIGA
Structure (SMILES),IC50 (EGFR L858R/T790M) [nM],IC50 (EGFR L858R) [nM],"IC50 [2, 4] [nM]","IC50 [3, 5] [nM]","IC50 [2, 6] [nM]","IC50 [3, 7] [nM]",RR (response rate) [1]
CN(C)C/C=C/C(=O)Nc1cc2c(Nc3ccc(F)c(Cl)c3)ncnc2cc1O[C@H]1CCOC1 [afatinib],,,,,,,less than 10%
"CN1CCC(c2ccc(-c3cc(F)c4cn(C(c5nc6ccccc6[nH]5)c5cc(F)ccc5O)nc4c3)cc2)CC1 (stereo not drawn) [Compound 119, 2-((1H-Benzo[d]imidazol-2-yl)(4-fluoro-6-(4-(1-methylpiperidin-4-yl)phenyl)-2H-indazol-2-yl)methyl)-4-fluorophenol; trifluoroacetate]",3,11,420,780,,,
"CN1CCC(c2ccc(-c3ccc4c(c3)C(=O)N(C(c3nc5cccnc5[nH]3)c3cc(F)ccc3O)C4)cc2)CC1 (stereo not drawn) [Compound 014, 2-[(5-Fluoro-2-hydroxy-phenyl)-(3H-imidazo[4,5-b]pyridin-2-yl)methyl]-6-[4-(1-methyl-4-piperidyl)phenyl]isoindolin-1-one; hydrochloride]",0.3,2,710,810,10,60,
"CN1CCC(c2ccc(-c3cc(F)c4c(=O)n([C@@H](c5nc6ccccc6[nH]5)c5cc(F)ccc5O)ccc4c3)cc2)CC1 (single isomer, unassigned) [Compound 065]",0.5,2,30,130,,,

# Continued, in another order:
IC50 (EGFR L858R/T790M) [nM],IC50 (EGFR L858R) [nM],"IC50 [2, 4] [nM]","IC50 [3, 5] [nM]","IC50 [2, 6] [nM]","IC50 [3, 7] [nM]",Structure (SMILES),RR (response rate) [1]
0.5,2,440,1180,7,60,"CN1CCC(c2ccc(-c3ccc4c(c3)C(=O)N(C(c3nc5ccccc5[nH]3)c3cc(F)ccc3O)C4)cc2)CC1 (stereo not drawn) [Compound 024, 2-[1H-Benzimidazol-2-yl-(5-fluoro-2-hydroxy-phenyl)methyl]-6-[4-(1-methyl-4-piperidyl)phenyl]isoindolin-1-one; hydrochloride]",
0.7,1,90,100,20,,"CN1CCC(c2ccc(-c3ccc4ncn(C(c5nc6ccccc6[nH]5)c5cc(F)ccc5O)c(=O)c4c3Cl)cc2)CC1 (stereo not drawn) [Compound 075, 3-[1H-benzimidazol-2-yl-(5-fluoro-2-hydroxy-phenyl)methyl]-5-chloro-6-[4-(1-methyl-4-piperidy)phenyl]-quinazolin-4-one; dihydrochloride]",
1,4,70,160,5,,"CN1CCC(c2ccc(-c3cc(F)c4c(=O)n(C(c5nc6ccccc6[nH]5)c5cc(F)ccc5O)ccc4c3)cc2)CC1 (stereo not drawn) [Compound 070, 2-[1H-benzimidazol-2-yl-(5-fluoro-2-hydroxy-phenyl)methyl]-8-fluoro-6-[4-(1-methyl-4-piperidyl)phenyl]isoquinolin-1-one]",
6,16,1310,4080,,,"CN1CCC(c2ccc(-c3cc4nn(C(c5nc6ccccc6[nH]5)c5cc(F)ccc5O)cc4cc3F)cc2)CC1 (stereo not drawn) [Compound 118, 2-((1H-Benzo[d]imidazol-2-yl)(5-fluoro-6-(4-(1-methylpiperidin-4-yl)phenyl)-2H-indazol-2-yl)methyl)-4-fluorophenol]",
8,11,860,1430,20,,"CN1CCC(Oc2ccc(-c3ccc4c(c3)C(=O)N(C(c3nc5ccccc5[nH]3)c3cc(F)ccc3O)C4)cc2)CC1 (stereo not drawn) [Compound 090, 2-[1H-benzimidazol-2-yl-(5-fluoro-2-hydroxy-phenyl)methyl]-6-[4-[(1-methyl-4-piperidyl)oxy]phenyl]isoindolin-1-one]",
20,31,220,670,20,,"CN1CCC(c2ccc(-c3cc(F)c4c(=O)n(C(c5ccccc5)c5nc6ccccc6[nH]5)ccc4c3)cc2)CC1 (stereo not drawn) [Compound 064, 2-[1H-benzimidazol-2-yl(phenyl)methyl]-8-fluoro-6-[4-(1-methyl-4-piperidyl)phenyl]-isoquinolin-1-one; dihydrochloride]",

# — US12391671B2, “Allosteric EGFR inhibitors and methods of use thereof” (Dana-Farber Cancer Institute, Inc., priority 2019, dated 2025)
